{"source": "patent US11103525B2", "about": "“Idoxuridine and its analogs as neuroprotectans for the treatment of parkinsonism” (priority 2017, dated 2021)", "key": {"GPR37-tGFP": {"tested_on": "GPR37-tGFP", "test": "GPR37-tGFP translocation assay", "assay_type": "cell-based, mouse", "details": "for effect in GPR37-translocation assay (hit rating): tested at 2, 10 and 20 μM", "protocol": "FIG. 2. Schematic representation of the rationale and the basic steps of GPR37-translocation assay. A. GPR37 is prone to misfolding and aggregation, which, in metabolically-active cells, are followed by degradation and results in low levels of functional receptor in the plasma membrane. The primary targets of the screening assay are compounds that can directly or indirectly facilitate maturation and trafficking of GPR37 to the plasma membrane. B. N2a cells stably expressing GPR37-tGFP are seeded in poly-D-Lysine coated 384 well plates at density 5000 cells/well. 24 h later cells are treated with compounds, including positive and negative controls, and incubated for 72 h. Then cells are fixed with 4% PFA and additionally stained with Hoechst 33342 (nuclei) and HCS CellMask™ red (cell body) to enable segmentation of the plasma membrane. Acquisition of fluorescence images is done using ImageXpress high content screening system (Molecular Devices). Quantification of GPR37-tGFP levels in the plasma membrane is done using CellProfiler software. FIG. 3. Schematic representation of Image analysis pipeline and final outcome data. Segmentation of the plasma membrane is performed in five main steps: 1) identification of nuclei (primary objects) using nuclear stain, 2) determination of cell borders using primary objects as seeds and growing these objects in respect of tGFP and HCS CellMask™ fluorescence intensity (secondary objects), 3) shrinking and expending secondary objects, 4) subtraction of shrunken cells from expended cells which results in membrane segmentation (tertiary objects), 5) tGFP fluorescence intensity is calculated within tertiary objects. Z′ factor is a quality measure of an assay which describes how well separated positive and negative controls are. Assays having Z′ factors above 0.5 are considered good assays. N2a cells stably expressing GPR37-tGFP were seeded in 384 BDFalcon BioCoat Poly-D-Lysine coated plates at a density of 5000 cells/well, and 50 μL incubation volume of maintenance medium. Cells were incubated at 37° C., 5% CO2 using humidity chamber. 24 h later, the cells were treated with 10 μL of compounds of desired concentration, including positive (2 mM dibutyryl-cAMP+0.5 mM 4-phenylbutyrate) and negative controls (0.1% DMSO), and incubated for 72 h. Cells were fixed with 4% PFA by adding 20 μL of 16% PFA directly to cell medium, incubating for 20 min and washing with PBS-Tween20 (0.05%). Directly after fixation cells were stained for nuclei with Hoechst 33342 (0.01 mg/mL) and for cell bodies with HCS CellMask™ Red stain (Thermo Fisher Scientific Inc.) (0.001 mg/mL) by incubating with the dyes for 30 min in PBS-Tween20 (0.05%) followed by washing with PBS. All the additional steps, including cell seeding were performed using Multidrop Combi dispenser (Thermo Scientific) and washing steps were done by means of HydroSpeed™ plate washer (Tecan). The images were captured using ImageXpress Micro XLS Widefield High-Content Analysis System (Molecular Devices, LLC) in 3 fluorescent channels (ImageXpress filters are listed, followed by excitation/emission in nm): DAPI (387/447), FITC (482/536) and TexasRed (562/624). Binning 2 was applied during the acquisition and digital confocal option was used for FITC and TexasRed filters. Typically, 5 images were taken per well at magnification 20× and stored as 16 bit, gray scale tif files along with metadata in Oracle database, for further analysis. Quantification of GPR37-tGFP levels in the plasma membrane was done using CellProfiler™ software. CellProfiler™ is an open-source cell image analysis software available at www.cellprofiler.org. An image analysis pipeline used for membrane segmentation consisted of 5 main steps (FIG. 3): 1) segmentation of nuclei (primary objects); 2) segmentation of cell bodies (secondary objects); 3) shrinking and expending cell bodies; 4) subtraction of shrank cells from expanded cells (tertiary objects—membranes); 5) calculating tGFP fluorescence in the membranes. […]"}, "hepatic aldehyde oxidase": {"biological_target": "T1, hepatic aldehyde oxidase (Homo sapiens, UniProt Q06278)", "T1 sequence (Q06278 1-1338)": "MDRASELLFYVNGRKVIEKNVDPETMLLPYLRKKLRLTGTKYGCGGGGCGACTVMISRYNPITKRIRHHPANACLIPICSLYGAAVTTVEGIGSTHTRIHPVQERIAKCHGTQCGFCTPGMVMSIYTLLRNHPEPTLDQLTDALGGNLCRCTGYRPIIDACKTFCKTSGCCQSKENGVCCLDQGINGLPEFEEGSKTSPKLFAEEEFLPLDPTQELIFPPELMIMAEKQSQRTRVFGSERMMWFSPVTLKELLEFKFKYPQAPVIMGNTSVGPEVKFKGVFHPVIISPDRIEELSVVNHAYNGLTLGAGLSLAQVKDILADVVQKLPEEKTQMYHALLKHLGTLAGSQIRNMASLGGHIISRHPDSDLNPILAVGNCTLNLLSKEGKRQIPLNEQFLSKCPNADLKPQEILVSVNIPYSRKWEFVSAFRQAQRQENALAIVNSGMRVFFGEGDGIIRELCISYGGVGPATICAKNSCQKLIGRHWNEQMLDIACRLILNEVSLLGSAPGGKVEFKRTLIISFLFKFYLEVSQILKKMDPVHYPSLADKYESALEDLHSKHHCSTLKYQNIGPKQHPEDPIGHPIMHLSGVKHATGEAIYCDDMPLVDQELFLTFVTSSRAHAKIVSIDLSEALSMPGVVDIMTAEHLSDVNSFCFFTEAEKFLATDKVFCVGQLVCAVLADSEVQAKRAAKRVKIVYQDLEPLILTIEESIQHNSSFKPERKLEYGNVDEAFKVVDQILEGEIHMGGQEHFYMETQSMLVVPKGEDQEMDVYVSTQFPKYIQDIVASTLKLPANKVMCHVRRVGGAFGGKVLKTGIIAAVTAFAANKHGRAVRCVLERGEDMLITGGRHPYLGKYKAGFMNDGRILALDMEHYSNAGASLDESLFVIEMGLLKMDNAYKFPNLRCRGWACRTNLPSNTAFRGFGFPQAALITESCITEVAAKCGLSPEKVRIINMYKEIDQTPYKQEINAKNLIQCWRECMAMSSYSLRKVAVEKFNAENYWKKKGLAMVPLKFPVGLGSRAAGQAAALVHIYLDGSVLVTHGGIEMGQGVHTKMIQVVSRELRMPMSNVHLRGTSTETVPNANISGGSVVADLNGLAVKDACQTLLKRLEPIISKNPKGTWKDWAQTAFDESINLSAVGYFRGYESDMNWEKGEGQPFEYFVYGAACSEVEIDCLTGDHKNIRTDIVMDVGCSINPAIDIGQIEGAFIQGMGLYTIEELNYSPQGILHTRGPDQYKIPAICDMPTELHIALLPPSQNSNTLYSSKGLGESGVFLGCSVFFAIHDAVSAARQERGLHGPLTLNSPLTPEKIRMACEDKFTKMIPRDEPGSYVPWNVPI", "details": "cited from earlier work"}, "[1]": {"details": "compared with idoxuridine; cited from earlier work"}}, "data": [{"smiles": "O=c1[nH]c(=O)n([C@H]2C[C@H](O)[C@@H](CO)O2)cc1O", "note": "[Compound 2, 5-hydroxy-1-((2R,4S,5R)-4-hydroxy-5-(hydroxymethyl)tetrahydrofuran-2-yl)pyrimidine-2,4(1H,3H)-dione]", "values": [{"measurement": "effect in GPR37-translocation assay (hit rating)", "setting": "GPR37-tGFP", "value": "slight positive effect"}]}, {"smiles": "Nc1cccc(-c2cn([C@H]3C[C@H](O)[C@@H](CO)O3)c(=O)[nH]c2=O)c1", "note": "[Compound 17, 5-(3-aminophenyl)-1-((2R,4S,5R)-4-hydroxy-5-(hydroxy-methyl)tetrahydrofuran-2-yl)pyrimidine-2,4(1H,3H)-dione]", "values": [{"measurement": "effect in GPR37-translocation assay (hit rating)", "setting": "GPR37-tGFP", "value": "strong hit"}]}, {"smiles": "C#Cc1cn([C@H]2C[C@H](O)[C@@H](CO)O2)c(=O)[nH]c1=O", "note": "[Compound 4, 5-ethynyl-1-((2R,4S,5R)-4-hydroxy-5-(hydroxymethyl)-tetrahydrofuran-2-yl)pyrimidine-2,4(1H,3H)-dione]", "values": [{"measurement": "effect in GPR37-translocation assay (hit rating)", "setting": "GPR37-tGFP", "value": "slight positive effect"}]}, {"smiles": "CCCC(=O)Nc1ncnc2c1ncn2[C@@H]1O[C@@H]2COP(=O)(O)O[C@H]2[C@H]1OC(=O)CCC", "note": "[dibutyryl-cAMP]", "values": [{"measurement": "increase of GPR37-tGFP in the plasma membrane", "setting": "GPR37-tGFP; without starvation, used as positive control", "value": "remarkable increase"}]}, {"smiles": "O=c1ncc(I)cn1[C@H]1C[C@H](O)[C@@H](CO)O1", "note": "[ropidoxuridine, 1-((2R,4S,5R)-4-hydroxy-5-(hydroxymethyl)tetrahydrofuran-2-yl)-5-iodopyrimidin-2(1H)-one]", "values": [{"measurement": "metabolic conversion to idoxuridine", "setting": "hepatic aldehyde oxidase", "value": "efficiently converted to idoxuridine"}, {"measurement": "stability in vivo", "setting": "[1]", "value": "more stable"}, {"measurement": "toxicity in vivo", "setting": "[1]", "value": "less toxic"}]}]}
